Laboratory results taken from patent US12351556B2, “Pyridin-2(1H)one derivatives, their preparation and their use for the treatment of pain” (INSTITUT NATIONAL DE LA SANTE ET DE LA RECHERCHE MEDICALE …, priority 2019, dated 2025).
Entries after “also recorded” stand apart in the source; their conditions may differ.

System: facial neuropathic MA (IoN-CCl)
Experiment: Neuropathic MA: chronic constriction injury of the infraorbital nerve (IoN-CCl)
Assay type: in vivo
Conditions: rat, intracisternal 5 μL at 100 μM, 14 days after IoN-CCl
Experimental: Time courses of changes in behavioral responses (allodynic score) evoked by normally innocuous mechanical stimuli (6-g von Frey filament) applied on the face of rats intracisternally treated with compound 69 (5 μL at 100 μM) or vehicle. In A, compound 69 or vehicle was preemptively applied 30 min before subcutaneous injection of CFA (at time 0). In B, compound 69 or vehicle was applied (at time 0) 14 days after IoN-CCl; that is, once a stable MA was established. […] Results are presented as mean±s.e.m.; n=4 (A) and n=5 (B) in each group. Allodynic score (from 0 to 4) according to Vos et al. J. Neurosci. 1994, 14, 2708-2723.
Rat model of neuropathic MA: chronic constriction injury of the rat's infraorbital nerve (IoN-CCl).
IoN-CCl was performed following a previously established surgical procedure Vos et al J. Neurosci. […]
For investigating the effects of synthetized compounds upon mechanical allodynia, animals were briefly (<2 min) anesthetized using a mask with 2% isoflurane and received an intracisternal injection of 5 μL of compound (100 μM) or vehicle alone (saline+1% DMSO) using a 10 μL Hamilton syringe. […] The behavioral responses were observed and quantified by a second experimenter (see below). […]
Compound 69 was also evaluated in a rat model of facial neuropathic MA produced by the constriction injury of the rat infraorbital nerve (IoN-CCl; J. Neurosci. 1994, 14, 2708-2723) (FIG. 2B). […]

With `O=c1[nH]cc(Nc2ccccc2)cc1-c1ccccc1Br` [Compound 69, 3-(2-Bromophenyl)-5-(phenylamino)pyridin-2(1H)-one] the “reversal of neuropathic MA (allodynic score)” value was “reversed MA; also recorded: quickly reversed”.
